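Tested at 5 concentrations; 48 h exposure; 96-well plates; endpoints linearly interpolated, else capped at highest concentration. At the GI50, growth is halved. Definition used: TGI = concentration required for complete inhibition of growth.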
Key:
Test in all cases: NCI-60 cell line screen, 48 h
CAKI-1 renal = system: CAKI-1 renal
SW-620 colon = system: SW-620 colon
SF-539 CNS = system: SF-539 CNS
SNB-19 CNS = system: SNB-19 CNS
UACC-62 melanoma = system: UACC-62 melanoma
DU-145 prostate = system: DU-145 prostate
HOP-62 NSCLC = system: HOP-62 NSCLC
LOX IMVI melanoma = system: LOX IMVI melanoma
MDA-MB-435 = system: MDA-MB-435
RXF 393 renal = system: RXF 393 renal
IGROV1 ovarian = system: IGROV1 ovarian
MDA-MB-468 breast = system: MDA-MB-468 breast
MOLT-4 leukemia = system: MOLT-4 leukemia
HCT-15 colon = system: HCT-15 colon
BT-549 breast = system: BT-549 breast
HCT-116 colon = system: HCT-116 colon
T-47D breast = system: T-47D breast
NCI/ADR-RES ovarian = system: NCI/ADR-RES ovarian
SN12C renal = system: SN12C renal
786-0 renal = system: 786-0 renal
RPMI-8226 leukemia = system: RPMI-8226 leukemia
SR leukemia = system: SR leukemia
CCRF-CEM leukemia = system: CCRF-CEM leukemia
SK-MEL-28 melanoma = system: SK-MEL-28 melanoma
A498 renal = system: A498 renal
MCF7 breast = system: MCF7 breast
SNB-75 CNS = system: SNB-75 CNS
PC-3 prostate = system: PC-3 prostate
EKVX NSCLC = system: EKVX NSCLC
SK-OV-3 ovarian = system: SK-OV-3 ovarian

## O=C(CSc1nnc(-c2ccc(-c3nc4ccc(Cl)cc4[nH]3)cc2)o1)Nc1ccc(Br)cc1
CAKI-1 renal
  TGI: 7.01 µM
SW-620 colon
  GI50: 4.3 µM
  TGI: 28.5 µM
SF-539 CNS
  GI50: 1.65 µM
  TGI: 3.08 µM
SNB-19 CNS
  GI50: 3.76 µM
  TGI: 14.3 µM
UACC-62 melanoma
  GI50: 1.84 µM
  TGI: 4.61 µM
DU-145 prostate
  GI50: 4.56 µM
  TGI: 19.3 µM
HOP-62 NSCLC
  GI50: 1.81 µM
  TGI: 3.96 µM
LOX IMVI melanoma
  GI50: 1.42 µM
  TGI: 2.8 µM
MDA-MB-435
  GI50: 3.84 µM
  TGI: 14.3 µM
RXF 393 renal
  GI50: 1.98 µM
  TGI: 5.15 µM
IGROV1 ovarian
  GI50: 8.27 µM
  TGI: 21.5 µM
MDA-MB-468 breast
  GI50: 2.66 µM
  TGI: 9.97 µM
MOLT-4 leukemia
  GI50: 2.99 µM
  TGI: 14.2 µM
HCT-15 colon
  GI50: 2.94 µM
  TGI: 13.6 µM
BT-549 breast
  GI50: 2.95 µM
  TGI: 8.55 µM
HCT-116 colon
  GI50: 3.22 µM
  TGI: 14.4 µM
T-47D breast
  GI50: 3.78 µM
  TGI: 20.2 µM
NCI/ADR-RES ovarian
  GI50: 4.93 µM
  TGI: 30.3 µM
SN12C renal
  GI50: 1.74 µM
  TGI: 4.09 µM
786-0 renal
  GI50: 2.23 µM
  TGI: 5.5 µM
RPMI-8226 leukemia
  GI50: 5.05 µM
  TGI: 26.3 µM
SR leukemia
  GI50: 1.67 µM
  TGI: > 100 µM
CCRF-CEM leukemia
  GI50: 2.31 µM
  TGI: 10.4 µM
SK-MEL-28 melanoma
  GI50: 1.77 µM
  TGI: 3.81 µM
A498 renal
  GI50: 17.3 µM
  TGI: 34.3 µM
MCF7 breast
  GI50: 3.02 µM
  TGI: 12.9 µM
SNB-75 CNS
  GI50: 2.39 µM
  TGI: 8.71 µM
PC-3 prostate
  GI50: 2.1 µM
  TGI: 5.78 µM
EKVX NSCLC
  GI50: 3.33 µM
  TGI: 14.6 µM
SK-OV-3 ovarian
  GI50: 8.75 µM
  TGI: 27.5 µM

Source: PubChem BioAssay (NCI)
